Measurements as given in ChEMBL document CHEMBL1127948, “Synthesis and in vitro cytotoxicity of diastereoisomerically modified dolastatin 15 analogues” (Bioorg Med Chem Lett, 1994).

How the values were obtained:
Osteoclast-like = assay: In vitro growth factor-dependent proliferation against murine bone marrow cell was determined; assay type: functional, cell-based, Mus musculus
Lymphoma cell line = assay: Antiproliferative effect against human lymphoma cells was determined; (0.012 to 0.12 nM); assay type: functional, cell-based
CTLL = assay: In vitro interleukin-2-dependent proliferation of the murine cytotoxlc T cell line (CTLL) was determined; assay type: functional, cell-based, Mus musculus
L1210 = assay: In vitro growth factor-independent proliferation against murine leukemia L1210 was determined; assay type: functional, cell-based, Mus musculus
[1] = test system: Panel leukemia (Carcinoma cell lines); assay: Antiproliferative effect against continuous human leukemia cell lines and peripheral blood cells from patients with acute myeloid leukemia was determined; (0.1 to 1 nM); assay type: functional, cell-based
Jurkat = assay: In vitro growth factor-independent proliferation against human leukemia T cell line jurkat was determined; assay type: functional, cell-based

Row | Compound | IC50 (Osteoclast-like; Mus musculus, Osteoclast-like) [nM] | IC50 (Lymphoma cell line) [nM] | IC50 (CTLL; Mus musculus, CTLL) [nM] | IC50 (L1210; Mus musculus, L1210) [nM] | IC50 [1] [nM] | IC50 (Jurkat) [nM] | IC50 (Osteoclast-like; osteoclast-like) [nM] | IC50 (CTLL; ctll) [nM] | IC50 (L1210; l1210) [nM]
1 | COC1=CC(=O)N(C(=O)[C@@H](OC(=O)[C@@H]2CCCN2C(=O)[C@@H]2CCCN2C(=O)[C@H](C(C)C)N(C)C(=O)[C@@H](NC(=O)[C@H](C(C)C)N(C)C)C(C)C)C(C)C)[C@H]1Cc1ccccc1 [DOLASTATIN 15] | 17 | 0.012 | 3 | 0.15 | 0.1 | 5 |  |  | 
2 | COC1=CC(=O)N(C(=O)[C@H](OC(=O)[C@@H]2CCCN2C(=O)[C@@H]2CCCN2C(=O)[C@H](C(C)C)N(C)C(=O)[C@@H](NC(=O)[C@H](C(C)C)N(C)C)C(C)C)C(C)C)[C@H]1Cc1ccccc1 (stereo in doubt; form 2) |  |  |  |  |  |  | 50 | 10 | 0.31
3 | COC1=CC(=O)N(C(=O)[C@H](OC(=O)[C@@H]2CCCN2C(=O)[C@@H]2CCCN2C(=O)[C@H](C(C)C)N(C)C(=O)[C@@H](NC(=O)[C@H](C(C)C)N(C)C)C(C)C)C(C)C)[C@@H]1Cc1ccccc1 | 120 |  | 400 | 1.78 |  | 700 |  |  | 
4 | COC1=CC(=O)N(C(=O)[C@H](OC(=O)[C@@H]2CCCN2C(=O)[C@@H]2CCCN2C(=O)[C@H](C(C)C)N(C)C(=O)[C@@H](NC(=O)[C@H](C(C)C)N(C)C)C(C)C)C(C)C)[C@H]1Cc1ccccc1 (stereo in doubt; form 1) | 40 |  | 8 | 0.3 |  | 10 |  |  | 
